Measured values taken from PMC4700268 (Frontiers in Pharmacology, 2016).
Read-outs that look alike come from different tables or passages of the source.

T1: hCNT3 (Homo sapiens, UniProt Q9HAS3)
T1 sequence (Q9HAS3 1-691): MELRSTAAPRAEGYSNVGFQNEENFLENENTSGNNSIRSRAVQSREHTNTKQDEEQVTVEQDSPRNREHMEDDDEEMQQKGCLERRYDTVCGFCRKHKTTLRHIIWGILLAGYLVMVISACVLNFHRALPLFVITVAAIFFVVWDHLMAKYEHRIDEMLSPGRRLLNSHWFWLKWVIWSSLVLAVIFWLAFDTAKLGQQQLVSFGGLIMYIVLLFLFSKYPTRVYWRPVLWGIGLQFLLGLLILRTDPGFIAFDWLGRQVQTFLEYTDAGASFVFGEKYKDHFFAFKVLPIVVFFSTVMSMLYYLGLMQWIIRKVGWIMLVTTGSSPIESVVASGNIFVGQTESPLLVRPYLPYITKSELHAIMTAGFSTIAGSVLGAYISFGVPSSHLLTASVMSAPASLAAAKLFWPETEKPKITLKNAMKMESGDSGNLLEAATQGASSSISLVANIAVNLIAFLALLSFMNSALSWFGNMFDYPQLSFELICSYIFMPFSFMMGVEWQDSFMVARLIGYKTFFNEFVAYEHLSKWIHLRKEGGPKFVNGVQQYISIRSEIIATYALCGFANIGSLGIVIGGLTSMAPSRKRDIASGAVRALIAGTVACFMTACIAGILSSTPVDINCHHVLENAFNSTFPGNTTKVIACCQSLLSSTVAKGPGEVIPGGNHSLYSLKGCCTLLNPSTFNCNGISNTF

T2: hOAT1 (Homo sapiens, UniProt Q4U2R8)
T2 sequence (Q4U2R8 1-563): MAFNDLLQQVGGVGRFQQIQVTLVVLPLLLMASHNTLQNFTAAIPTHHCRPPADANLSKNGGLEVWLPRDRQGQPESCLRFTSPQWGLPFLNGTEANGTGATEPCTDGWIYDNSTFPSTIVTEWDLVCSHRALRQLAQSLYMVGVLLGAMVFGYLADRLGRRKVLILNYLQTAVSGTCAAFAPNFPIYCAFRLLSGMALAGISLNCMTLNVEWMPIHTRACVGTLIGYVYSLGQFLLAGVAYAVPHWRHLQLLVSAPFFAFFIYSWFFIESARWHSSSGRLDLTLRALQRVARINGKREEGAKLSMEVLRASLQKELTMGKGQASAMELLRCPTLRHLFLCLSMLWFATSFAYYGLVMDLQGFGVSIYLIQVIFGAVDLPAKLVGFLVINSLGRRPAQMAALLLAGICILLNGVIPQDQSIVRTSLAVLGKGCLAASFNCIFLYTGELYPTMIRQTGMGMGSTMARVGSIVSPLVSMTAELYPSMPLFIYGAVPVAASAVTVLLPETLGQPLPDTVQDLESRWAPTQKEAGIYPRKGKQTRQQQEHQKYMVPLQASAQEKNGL

T3: hCNT2 (Homo sapiens, UniProt O43868)
T3 sequence (O43868 1-658): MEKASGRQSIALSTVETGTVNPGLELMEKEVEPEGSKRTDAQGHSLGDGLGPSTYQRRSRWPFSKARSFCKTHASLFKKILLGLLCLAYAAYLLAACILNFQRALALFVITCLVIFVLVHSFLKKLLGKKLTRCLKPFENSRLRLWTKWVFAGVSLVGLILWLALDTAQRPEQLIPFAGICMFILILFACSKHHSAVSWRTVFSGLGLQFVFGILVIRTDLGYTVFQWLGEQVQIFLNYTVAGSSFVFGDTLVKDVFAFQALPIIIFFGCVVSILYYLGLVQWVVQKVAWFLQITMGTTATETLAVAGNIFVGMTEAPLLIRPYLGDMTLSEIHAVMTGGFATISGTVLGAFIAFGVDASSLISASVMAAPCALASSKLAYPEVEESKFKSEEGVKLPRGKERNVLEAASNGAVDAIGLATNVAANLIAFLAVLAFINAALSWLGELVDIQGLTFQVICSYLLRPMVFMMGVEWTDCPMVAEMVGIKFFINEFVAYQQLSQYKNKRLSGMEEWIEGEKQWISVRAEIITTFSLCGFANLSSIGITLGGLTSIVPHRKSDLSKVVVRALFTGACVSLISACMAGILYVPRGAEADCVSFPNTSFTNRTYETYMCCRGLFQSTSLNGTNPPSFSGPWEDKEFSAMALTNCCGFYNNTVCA

B1: hCNT2 (Homo sapiens) (protein)
chain: T3 sequence (O43868 1-658)
B2: hOAT1 (Homo sapiens) (protein)
chain: T2 sequence (Q4U2R8 1-563)
notes: host or cells: HeLa cells, transient transfection
B3: hCNT3 (Homo sapiens) (protein)
chain: T1 sequence (Q9HAS3 1-691)

How the values were obtained:
[1] = ref Cundy, 1999; Kearney et al., 2005; Delahunty et al., 2006; cited from earlier work
hCNT3 = target: T1, hCNT3; assay: Inhibition of [3H]uridine uptake in hCNT3 transfected MDCK II cells; type: in vitro ADME; set-up: host or cells: MDCK II cells, transient transfection; conditions: 1 μM [3H]uridine, 0–1000 μM, 2 min, MDCK II
Procedure: (§1) Inhibitory transport assays were carried out in 24-well plates as described previously ([Mandikova et al., 2013]). Transport assays in HeLa cells transiently transfected with the hOAT1 expression construct were performed 48 h after transfection. Transport assays in MDCK II cells transiently transfected with hOCT2, hCNT2 or hCNT3 were performed 24 h after transfection. The cultivation medium was removed and the cells were washed with transport solution and preincubated for 10 min at 37°C. The standard radiolabeled substrate or tested radioactive antiviral substance dissolved in transport solution was added to the cells and incubated for 2 min. [^3H]PAH (1 μM) was used as a prototypical substrate for OATs, [^3H]MPP^+ (1 μM) for OCTs and [^3H]uridine (1 μM) for CNTs. […] After the designated time period, the incubation was stopped by washing the cells twice with ice-cold solution containing 137 mM NaCl and 10 mM HEPES, pH 7.4. The cells were disintegrated with 0.1 mL of Triton X 0.5% in 100 mM NaOH for 1 h.
(§2) IC50 values were calculated using non-linear regression analysis using GraphPad Prism software (version 6).

hOAT1 = target: T2, hOAT1; set-up: method as in Ho et al. (2000); conditions: ref Ho et al. (2000); read-out: Km in CHO cells stably expressing hOAT1; cited from earlier work
hCNT2 = target: T3, hCNT2; assay: Inhibition of [3H]uridine uptake in hCNT2 transfected MDCK II cells; type: in vitro ADME; set-up: host or cells: MDCK II cells, transient transfection; conditions: 1 μM [3H]uridine, 0–1000 μM, 2 min, MDCK II
Procedure: as §1, §2

[2] = system: HeLa cells transiently transfected with hOAT1; assay: MTS cell viability assay in hOAT1 transfected HeLa cells; conditions: 24 h, hOAT1 vs empty vector transfected HeLa cells
Procedure: (§3) The Hela cells were plated in a 96-well plate and transfected with hOAT1 as described above. […] The controls were prepared simultaneously. After 24 h of incubation, the reagent from the kit CellTiter 96 AQueous One Solution Cell Proliferation Assay (CellTiter 96, PROMEGA, USA) was added. After 1.5 h of incubation at 37°C the absorbance was recorded at 490 nm.

[3] = system: HeLa cells transiently transfected with hOAT1
Procedure: as §3

not read [4] = substrate: C=C1[C@H](CO)[C@@H](O)C[C@@H]1n1cnc2c(=O)[nH]c(N)nc21; assay: not read; conditions: 5 min, 37°C
not read [5] = substrate: C=C1[C@H](CO)[C@@H](O)C[C@@H]1n1cnc2c(=O)[nH]c(N)nc21; assay: not read; type: in vitro ADME, human; conditions: other: HeLa cells transiently transfected with hOAT1, 5 min, 37°C

| Molecule | Therapeutic plasma levels achieved in humans [1] [µM] | Inhibitory effect on hCNT3 (hCNT3) | Inhibitory effect on hCNT2 (hCNT2) | Effect of hOAT1 expression on cytotoxicity (cell viability) [2] | other results |
| --- | --- | --- | --- | --- | --- |
| Nc1ncnc2c1ncn2CCOCP(=O)(O)O [adefovir] | 0.1 | not observed | not observed | significantly enhanced the cytotoxic effect | Km (hOAT1): 23.8 µM |
| Nc1ccn(C[C@@H](CO)OCP(=O)(O)O)c(=O)n1 [cidofovir] | 70 | not observed | not observed | significantly enhanced the cytotoxic effect |  |
| C[C@H](Cn1cnc2c(N)ncnc21)OCP(=O)(O)O [tenofovir] | 0.5 | not observed | not observed |  | Effect of hOAT1 expression on cytotoxicity (cell viability) [3]: significantly enhanced the cytotoxic effect |
| B1 |  |  |  |  | Km (not read [4]; other: hCNT2 transfected cells): 1522.00 µM |
| B2 |  |  |  |  | Km (not read [5]): 316.5 µM |
| B3 |  |  |  |  | Km (not read [4]; other: hCNT3 transfected cells): 99.02 µM |
